Test: pKa and acid-form fraction of lactic acid
Format: physicochemical
Conditions: pH of 2.2
Description: In some example embodiments of formulations including an allergen neutralizing agent, the pH of the formulations can be kept low. A low pH can enhance the organic acid efficacy (e.g., lactic acid efficacy) in neutralization of airborne allergens. Typically, pH is kept a least 1 unit below pKa of the organic acid to ensure the majority (e.g., at least 90%) of acid stays in the active (conjugate acid) form. […].

| SMILES | fraction of lactic acid in the acidic form |
| --- | --- |
| CC(O)C(=O)O (centres unmarked) [lactic acid] | at least 95% |

Test: not given
Conditions: cited from earlier work

| SMILES | Solubility in water (g of compound in 100 g of water at ~20° C.) |
| --- | --- |
| CCCCCC(=O)O [hexanoic acid] | 1.03 g of compound in 100 g of water |

Same assay, conditions: ~20° C.; cited from earlier work

| SMILES | Solubility in water (g of compound in 100 g of water at ~20° C.) |
| --- | --- |
| O=C(O)/C=C/C(=O)O [fumaric acid] | 0.7 g of compound in 100 g of water |
| CCCCCCC(=O)O [heptanoic acid] | 0.2 g of compound in 100 g of water |
| CC(=O)CCC(=O)O [levulinic acid] | 79.13 g of compound in 100 g of water |
| O=C(O)/C=C\C(=O)O [maleic acid] | 47.88 g of compound in 100 g of water |
| O=C(O)CC(O)C(=O)O (centres unmarked) [malic acid] | 64.7 g of compound in 100 g of water |
| CS(=O)(=O)O [methane sulfonic acid] | 100 g of compound in 100 g of water |
| CC(=O)C(=O)O [pyruvic acid] | 100 g of compound in 100 g of water |
| C/C=C/C=C/C(=O)O [sorbic acid] | 0.156 g of compound in 100 g of water |
| CCCCC(=O)O [valeric acid] | 3.75 g of compound in 100 g of water |

Reference: US20250368923A1, “PRE-MOISTENED ARTICLES FOR REFRESHING CLOTHING IN THE DRYER” (The Clorox Company, priority 2024, published 2025)
